Assay: Metabolomic analysis of infant feces (UPLC-MS/MS)
Format: in vivo, human
Description: Fecal samples from infants of Example 1 were evaluated as described below to characterize the fecal metabolome and what effects colonization by this organism may have on the infant's metabolism as a whole.
Sample Preparation: Fecal samples were maintained at −80° C. until processed. Samples were prepared using the automated MicroLab STAR® system from Hamilton Company. Several recovery standards were added prior to the first step in the extraction process for QC purposes. To remove protein, dissociate small molecules bound to protein or trapped in the precipitated protein matrix, and to recover chemically diverse metabolites, proteins were precipitated with methanol under vigorous shaking for 2 min (Glen Mills GenoGrinder 2000) followed by centrifugation. The resulting extract was divided into five fractions: two for analysis by two separate reverse phase (RP)/UPLC-MS/MS methods with positive ion mode electrospray ionization (ESI), one for analysis by RP/UPLC-MS/MS with negative ion mode ESI, one for analysis by HILIC/UPLC-MS/MS with negative ion mode ESI, and one sample was reserved for backup. Samples were placed briefly on a TurboVap® (Zymark) to remove the organic solvent. The sample extracts were stored overnight under nitrogen before preparation for analysis.
Preparation of study-tracking replicates. A small aliquot of each sample was pooled to create a study tracking sample, which was then injected periodically throughout the platform run. Variability detected in the study tracking sample among consistently detected biochemicals can be used to calculate an estimate of overall process and platform variability.
Ultrahigh Performance Liquid Chromatography-Tandem Mass Spectroscopy (UPLC-MS/MS): All methods utilized a Waters ACQUITY ultra-performance liquid chromatography (UPLC) and a Thermo Scientific Q-Exactive high resolution/accurate mass spectrometer interfaced with a heated electrospray ionization (HESI-II) source and Orbitrap mass analyzer operated at 35,000 mass resolution. The sample extract was dried then reconstituted in solvents compatible to each of the four methods. Each reconstitution solvent contained a series of standards at fixed concentrations to ensure injection and chromatographic consistency. One aliquot was analyzed using acidic positive ion conditions, chromatographically optimized for more hydrophilic compounds. In this method, the extract was gradient eluted from a C18 column (Waters UPLC BEH C18-2.1×100 mm, 1.7 μm) using water and methanol, containing 0.05% perfluoropentanoic acid (PFPA) and 0.1% formic acid (FA). Another aliquot was also analyzed using acidic positive ion conditions, however it was chromatographically optimized for more hydrophobic compounds. In this method, the extract was gradient eluted from the same afore mentioned C18 column using methanol, acetonitrile, water, 0.05% PFPA and 0.01% FA and was operated at an overall higher organic content. Another aliquot was analyzed using basic negative ion optimized conditions using a separate dedicated C18 column. The basic extracts were gradient eluted from the column using methanol and water, however with 6.5 mM Ammonium Bicarbonate at pH 8. The fourth aliquot was analyzed via negative ionization following elution from a HILIC column (Waters UPLC BEH Amide 2.1×150 mm, 1.7 μm) using a gradient consisting of water and acetonitrile with 10 mM Ammonium Formate, pH 10.8. The MS analysis alternated between MS and data-dependent MS' scans using dynamic exclusion. The scan range varied slighted between methods but covered 70-1000 m/z.
Data Extraction and Compound Identification: Raw data was extracted, peak-identified and QC processed using Proprietary hardware and software. […]

[1] = day 28, fold-change active:control
[2] = intervention/control, outlier removed

Substance: Bifidobacterium longum subsp. infantis EVC001 [B. infantis EVC001]
- creatinine Active/Control [1]: 1.4
- gamma-glutamyl-alpha-lysine Active/Control [1]: 3.3
- gamma-glutamyl-epsilon-lysine Active/Control [1]: 2.4
- gamma-glutamylalanine Active/Control [1]: 5.9
- gamma-glutamylcysteine Active/Control [1]: 44.3
- gamma-glutamylglutamate Active/Control [1]: 3.1
- gamma-glutamylglutamine Active/Control [1]: 1.6
- gamma-glutamylhistidine Active/Control [1]: 10.5
- gamma-glutamylisoleucine* Active/Control [1]: 8.1
- gamma-glutamylleucine Active/Control [1]: 1.6
- gamma-glutamylmethionine Active/Control [1]: 19.3
- gamma-glutamylphenylalanine Active/Control [1]: 4.2
- gamma-glutamylthreonine Active/Control [1]: 7.15
- gamma-glutamyltyrosine Active/Control [1]: 2.8
- gamma-glutamylvaline Active/Control [1]: 3.3
- Gamma-glutamyl Threonine Int/con (intervention/control): 5.35
- N-acetyl Threonine Int/con (intervention/control): 3.07
- Threonine Int/con (intervention/control): 3.21
- Gamma-glutamyl Threonine Int/Con with outlier removed [2]: 7.15
- N-acetyl Threonine Int/Con with outlier removed [2]: 3.67
- Threonine Int/Con with outlier removed [2]: 4.35
- Fecal retinol (versus control): significantly reduced
